Measured values: article PMC4481117 (Molecular Pain, 2015)

How the values were obtained:
Mac-1-HEK293 cells = assay: Transwell migration of Mac-1-HEK293 cells to Dyn A; format: cell-based, Human; settings: 16 h at 37 °C
Protocol: Fig. 6 Migration of Mac-1-expressing cells to Dyn A in a Transwell system. a, Mac-1-expressing HEK 293 cells (100 μl at 3 × 10^6 cell/ml) were added to the upper wells of the transwell chamber and their ability to migrate to different concentrations of Dyn A placed in the lower chamber was analyzed. After 16 hours at 37 °C, migrated cells were fixed, stained, and counted. Data are presented as numbers of migrated cells per field ± S.E. for five random fields per well. The figure is representative of 5 experiments. b, Mac-1-expressing or wild-type HEK 293 cells were added to the upper wells of the transwell chamber and their ability to migrate to 10 μM Dyn A placed in the lower chamber was analyzed as in A. Some Mac-1-HEK293 cells were pretreated with 20 μg/ml of mAbs 44a (anti-αM), IB4 (anti-β2) or OKM1 (non function-blocking anti-αM) or medium alone before addition to the upper wells. ***, medium alone. Data are presented as the number of migrated cells per field ± S.E. for five random fields/well from 3 separate experiments. **, p < 0.01. c, migration of TG-elicited macrophages isolated from the peritoneum of wild-type and Mac-1-deficient mice. Macrophages (3x10^5) were placed in the upper chamber and allowed to migrate to Dyn A (10 μM) in the lower chamber for 90 min. The number of migrated cells was determined as in A. Data are presented as number of migrated cells per field ± S.E. for five random fields per well. The figure is representative of 3 experiments
Migration assays with wild-type and Mac-1-expressing HEK293 cells and purified macrophages using Transwell inserts (5 μm pore size) were performed as previously described. […] The photographs were taken using a 20x objective and cells in […] and cells were counted. […]

wild-type HEK293 cells = assay: Adhesion of wild-type HEK293 cells to immobilized peptide; format: cell-based, Human; settings: coated wells, calcein-labeled cells, 30 min at 37 °C
Protocol: Fig. 3 Adhesion of Mac-1-expressing cells to Dyn A and Dyn B. a, Mac-1-expressing and wild-type HEK293 cells were labeled with calcein and 5x10^4 cells were added to the wells coated with different concentrations of the Dyn A. After 30 min at 37 °C, nonadherent cells were removed and fluorescence was measured. The data shown are means of triplicate determinations, and error bars represent S.E. The figure is representative of 8 experiments. b , adhesion of HEK293 cells expressing Mac-1, LFA and the I-less form of Mac-1 to Dyn A and Dyn B immobilized at 10 μM was determined as described in A. c, calcein-labeled Mac-1-HEK293 cells were preincubated without or with 10 μg/ml of anti-αM mAb 44a or 1 μg/ml NIF for 15 minutes. For testing the role of glucosaminoglycans in cell adhesion, dynorphin A-coated wells were preincubated with 100 μl of 10 μg/ml of chondroitin sulfate A, chondroitin sulfate B and heparin. […]
Adhesion assays were performed essentially as described previously. […] Fluorescence was measured in a CytoFluorII fluorescence plate reader (Perceptive Biosystems, Framingham, MA). […] After aspirating the solution, labeled cells were added and cell adhesion was analyzed as above.

CC[C@H](C)[C@H](NC(=O)[C@H](CCCNC(=N)N)NC(=O)[C@H](CCCNC(=N)N)NC(=O)[C@H](CC(C)C)NC(=O)[C@H](Cc1ccccc1)NC(=O)CNC(=O)CNC(=O)[C@@H](N)Cc1ccc(O)cc1)C(=O)N[C@@H](CCCNC(=N)N)C(=O)N1CCC[C@H]1C(=O)N[C@@H](CCCCN)C(=O)N[C@@H](CC(C)C)C(=O)N[C@@H](CCCCN)C(=O)N[C@@H](Cc1c[nH]c2ccccc12)C(=O)N[C@@H](CC(=O)O)C(=O)N[C@@H](CC(N)=O)C(=O)N[C@@H](CCC(N)=O)C(=O)O [Dyn A]
Concentration at which migratory response reaches saturation (Mac-1-HEK293 cells; Transwell 5 μm): 5 µM
Lowest concentration inducing migration (Mac-1-HEK293 cells; Transwell 5 μm): 0.5 to 1 µM
Migration of Mac-1-HEK293 cells (in words) (Mac-1-HEK293 cells; Transwell): strong concentration-dependent migratory response
Adhesion of wild-type HEK293 cells (in words) (wild-type HEK293 cells): adhered only slightly
